Experimental data reported in US7897781B2, “Cold menthol receptor-1 antagonists” (Janssen Pharmaceutica NV, priority 2006, dated 2011).
Several values for one entry are separate records, joined by “and”; a condition that tells them apart may be missing. Identical values can stand only once.

Biological target: T1, canine TRPM8 (Canis lupus familiaris, UniProt Q1A7N1)
T1 construct: expressed in transfected cells
Assay: In vitro canine TRPM8 functional assay (Ca2+-sensitive dye, icilin activation; Table 4 TRPM8 Screening)
Assay type: cell-based
Conditions: HEK293 cells expressing canine TRPM8, icilin activation; for % I (1 μM): compound at 1 μM; for % I (5 μM): compound at 5 μM; for % I (0.5 μM): compound at 0.5 μM
Protocol: The functional activity of compounds of Formula (I) was determined by measuring changes in intracellular calcium concentration using a Ca^2+-sensitive fluorescent dye. The changes in fluorescent signal were monitored by a fluorescence plate reader, either a FLIPR™ (Molecular Devices) or FDSS (Hamamatsu).
HEK293 cells stably expressing canine TRPM8 were routinely grown as monolayers in Dulbecco's minimum essential medium supplemented with 10% FBS, 1 mM L-glutamine, 100 units/mL penicillin, 100 ug/mL streptomycin and 400 μg/mL G418. Cells were maintained in 5% CO2 at 37° C. At 24 hrs prior to assay, cells were seeded in clear-base poly-D-lysine coated 384-well plates (BD Biosciences, NJ, USA) at a density of 5,000 cells per well in culture medium and grown overnight in 5% CO2 at 37° C. On assay day, growth media was removed and cells were loaded with Calcium 3 Dye (Molecular Devices) for 35 min at 37° C., under 5% CO2 and then for 25 min at room temperature and atmosphere. Subsequently, cells were tested for agonist-induced increases in intracellular Ca^2+ levels using FLIPR™ or FDSS. Cells were challenged with a compound of Formula (I) (at varying concentrations) and intracellular Ca^2+ was measured for 5 min prior to the addition of icilin to all wells to achieve a final concentration which produces approximately an 80% maximal response.
Basal FI was subtracted prior to normalizing data to percent of maximal response. Curves were generated using the average of quadruplicate wells for each data point, were analyzed using nonlinear regression of either sigmoidal dose response or sigmoidal dose response (variable slope). Finally, the EC50 and IC50 values were calculated with the best-fit dose curve determined by GraphPad Prism.

T1 sequence (Q1A7N1 1-1104): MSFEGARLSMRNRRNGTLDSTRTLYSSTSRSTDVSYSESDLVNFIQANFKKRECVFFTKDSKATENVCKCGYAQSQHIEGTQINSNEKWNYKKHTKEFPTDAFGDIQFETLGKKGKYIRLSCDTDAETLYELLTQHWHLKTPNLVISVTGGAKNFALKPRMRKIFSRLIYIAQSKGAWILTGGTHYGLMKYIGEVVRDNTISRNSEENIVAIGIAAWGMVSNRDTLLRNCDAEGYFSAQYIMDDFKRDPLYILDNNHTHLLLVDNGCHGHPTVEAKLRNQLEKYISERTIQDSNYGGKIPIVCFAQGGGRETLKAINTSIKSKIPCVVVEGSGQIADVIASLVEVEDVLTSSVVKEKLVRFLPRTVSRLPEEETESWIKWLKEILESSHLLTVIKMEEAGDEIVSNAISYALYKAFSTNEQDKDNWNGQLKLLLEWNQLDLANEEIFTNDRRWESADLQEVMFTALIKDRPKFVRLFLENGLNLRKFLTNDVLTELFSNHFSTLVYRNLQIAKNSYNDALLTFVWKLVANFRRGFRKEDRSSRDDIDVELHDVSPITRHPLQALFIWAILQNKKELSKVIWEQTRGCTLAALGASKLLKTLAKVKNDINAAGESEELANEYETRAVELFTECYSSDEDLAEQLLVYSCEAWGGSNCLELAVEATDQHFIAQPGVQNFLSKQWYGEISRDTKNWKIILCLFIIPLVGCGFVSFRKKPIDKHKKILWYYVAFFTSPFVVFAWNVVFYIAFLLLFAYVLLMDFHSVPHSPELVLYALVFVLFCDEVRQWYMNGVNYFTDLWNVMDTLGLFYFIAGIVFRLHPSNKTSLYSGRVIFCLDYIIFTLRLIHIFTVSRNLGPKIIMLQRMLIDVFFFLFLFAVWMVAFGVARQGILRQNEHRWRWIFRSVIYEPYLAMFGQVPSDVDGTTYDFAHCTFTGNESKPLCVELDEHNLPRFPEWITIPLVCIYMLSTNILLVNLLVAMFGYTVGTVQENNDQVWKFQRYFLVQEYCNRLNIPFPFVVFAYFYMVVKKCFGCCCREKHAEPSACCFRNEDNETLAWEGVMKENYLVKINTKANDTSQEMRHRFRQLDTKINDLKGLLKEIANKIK

| Structure (SMILES) | % I (1 μM) | % I (5 μM) [%] | % I (0.5 μM) |
| --- | --- | --- | --- |
| CCOP(=O)(Cc1cc2ccccc2s1)OCc1ccccc1Cl (racemic) [Cpd 105] | 48% | 100 | – |
| CCOP(=O)(OCC)C(Cc1cccc(OC(F)(F)F)c1)c1sc2ccccc2c1Br (racemic) [Cpd 145] | – | – | 103, % |
| CCOP(=O)(OCC)C(Cc1ccc(OC)c(C(F)(F)F)c1)c1sc2ccccc2c1Br (racemic) [Cpd 152] | – | – | 92% |
| CCOP(=O)(OCC)C(Cc1c(F)c(F)c(OC)c(F)c1F)c1sc2ccccc2c1Br (racemic) [Cpd 160] | – | – | 87% |
| CCOP(=O)(OCC)C(Cc1cc(OC)c(Cl)cc1F)c1sc2ccccc2c1Br (racemic) [Cpd 164] | – | – | 94% |
| CC(C)OP(=O)(OC(C)C)C(Cc1cc(C(F)(F)F)cc(C(F)(F)F)c1)c1sc2ccccc2c1Cl (racemic) [Cpd 171] | – | – | 95% |
| CCOP(=O)(OCC)C(Cc1ccc(F)c(F)c1)c1oc2cccc(F)c2c1Br (racemic) [Cpd 206] | 100% | – | – |
| CC(C)OP(=O)(OC(C)C)C(Cc1ccc(F)c(F)c1)c1sc2ncccc2c1Br (racemic) [Cpd 207] | – | – | 99% |
| CC(C)CCOP(=O)(OCCC(C)C)C(Cc1ccc(F)c(F)c1)c1sc2ccccc2c1Br (racemic) [Cpd 211] | – | – | 97% |
| CC(=O)OCCOP(=O)(OCCOC(C)=O)C(Cc1ccc(F)c(F)c1)c1sc2ccccc2c1Br (racemic) [Cpd 213] | – | – | 100% |
| CCOP(=O)(OCC)C(Cc1ccc(F)c(F)c1)c1sc2ccccc2c1-c1ccccc1F (racemic) [Cpd 216] | – | – | 100% |
| CCOP(=O)(OCC)C(Cc1ccc(F)c(F)c1)c1sc2ccccc2c1-c1cccc(C(N)=O)c1 (racemic) [Cpd 218] | – | – | 79% |
| CCOP(=O)(OCC)C(Cc1c(F)c(F)c(O)c(F)c1F)c1sc2ccccc2c1Br (racemic) [Cpd 228] | – | – | 94% |
| CC(C)OP(=O)(OC(C)C)C(Cc1c(F)c(F)c(O)c(F)c1F)c1sc2ccccc2c1Br (racemic) [Cpd 229] | – | – | 95% |
| CC(C)OP(=O)(OC(C)C)C(Cc1cccc(O)c1F)c1sc2ccccc2c1Br (racemic) [Cpd 230] | – | – | 97% |
| CCOP(=O)(OCC)C(Cc1cc(O)c(Cl)cc1F)c1sc2ccccc2c1Br (racemic) [Cpd 231] | – | – | 98% |
| CC(C)OP(=O)(OC(C)C)C(Cc1cc(O)c(Cl)cc1F)c1sc2ccccc2c1Br (racemic) [Cpd 232] | – | – | 99% |
| CCOP(=O)(OCC)C(Cc1ccccc1C(F)(F)F)c1sc2ccccc2c1Cl (racemic) [Cpd 279] | – | – | 97% |
| CCOP(=O)(OCC)C(Cc1cc(C(F)(F)F)cc(C(F)(F)F)c1)c1sc2ccccc2c1Cl (racemic) [Cpd 282] | – | – | 100% |
| CCOP(=O)(OCC)C(Cc1ccc(OC)c(C(F)(F)F)c1)c1sc2ccccc2c1Cl (racemic) [Cpd 292] | – | – | 99% |

| Structure (SMILES) | % I (1 μM) | % I (5 μM) [%] | % I (0.5 μM) |
| --- | --- | --- | --- |
| CCOP(=O)(CC(C)C)C(Cc1ccc(F)c(F)c1)c1sc2ccccc2c1C (centres unmarked) [Cpd 6, [2-(3,4-Difluoro-phenyl)-1-(3-methyl-benzo[b]thiophene-2-yl)-ethyl]-isobutyl-phosphonic acid ethyl ester] | 100% | – | – |
| CCOP(=O)(OCC)C(Cc1cccc(F)c1F)c1sc2ccccc2c1C (centres unmarked) [Cpd 10] | 100% | – | – |
| Cc1c(C(Cc2ccc(F)c(F)c2)P(=O)(OC(C)C)OC(C)C)oc2ccccc12 (centres unmarked) [Cpd 11] | 99% | – | – |
| CC(C)OP(=O)(OC(C)C)C(Cc1ccc(F)c(F)c1)c1sc2ccccc2c1Br (centres unmarked) [Cpd 15, [1-(3-Bromo-benzo[b]thiophen-2-yl)-2-(3,4-difluoro-phenyl)ethyl]-phosphonic acid diisopropyl ester] | 100% and 103% | – | – |
| CC(C)OP(=O)(OC(C)C)C(Cc1ccc(F)c(F)c1)c1sc2ccccc2c1C(C)C (centres unmarked) [Cpd 19] | 100% | – | – |
| CCOP(=O)(OCC)C(Cc1cccc(Cl)c1F)c1sc2ccccc2c1C (centres unmarked) [Cpd 23] | 100% | – | – |
| CCOP(=O)(OCC)C(Cc1ccccc1C)c1sc2ccccc2c1C (centres unmarked) [Cpd 26] | 100% | – | – |
| CCOP(=O)(OCC)C(Cc1ccc(F)cc1Cl)c1sc2ccccc2c1C (centres unmarked) [Cpd 27] | 99% | – | – |
| CCOP(=O)(OCC)C(Cc1cc(F)cc(F)c1Cl)c1sc2ccccc2c1C (centres unmarked) [Cpd 28] | 100% | – | – |
| Cc1c(C(Cc2ccc(F)c(F)c2)P(=O)(OC(C)C)OC(C)C)sc2ncccc12 (centres unmarked) [Cpd 34, [2-(3,4-Difluoro-phenyl)-1-(3-methyl-thieno[2,3-b]pyridin-2-yl)-ethyl]-phosphonic acid diisopropyl ester] | 101, 101% | – | – |
| CCOP(=O)(OCC)C(Cc1cccc(Cl)c1Cl)c1sc2ccccc2c1C (centres unmarked) [Cpd 35] | 100% | – | – |
| CCOP(=O)(CC(C)C)C(Cc1ccc(F)c(F)c1)c1sc2ccccc2c1C (centres unmarked) [Cpd 36, [2-(3,4-Difluoro-phenyl)-1-(3-methyl-benzo[b]thiophene-2-yl)-ethyl]-isobutyl-phosphonic acid ethyl ester] | 100% | – | – |
| CCOP(=O)(OCC)C(Cc1cccc(C(F)(F)F)c1F)c1sc2ccccc2c1C (centres unmarked) [Cpd 37] | 100% | – | – |
| CC(C)OP(=O)(OC(C)C)C(Cc1ccc(F)c(F)c1)c1sc2ccccc2c1C1CCCC1 (centres unmarked) [Cpd 38] | 99% | – | – |
| CCOP(=O)(OCC)C(Cc1cccc(C(F)(F)F)c1)c1cc2ccccc2s1 (centres unmarked) [Cpd 39] | 100% | – | – |
| CCCP(=O)(CCC)C(OCc1ccc(F)c(F)c1)c1sc2ccccc2c1C (centres unmarked) [Cpd 42] | 100% | – | – |
| CCOP(=O)(OCC)C(Cc1ccc2ccccc2c1)c1sc2ccccc2c1C (centres unmarked) [Cpd 46] | 99% | – | – |
| CCOP(=O)(OCC)C(Cc1ccccc1Cl)c1sc2ccccc2c1C (centres unmarked) [Cpd 48] | 100% | – | – |
| Cc1c(C(Cc2ccc(F)c(F)c2)P(=O)(OCC(C)(C)C)OCC(C)(C)C)sc2ccccc12 (centres unmarked) [Cpd 53, [2-(3,4-Difluoro-phenyl)-1-(3-methyl-benzo[b]thiophen-2-yl)ethyl]-phosphonic acid bis-(2,2-dimethyl-propyl) ester] | 97% | – | – |
| CCOP(=O)(OCC)C(Cc1c(Cl)cccc1Cl)c1sc2ccccc2c1C (centres unmarked) [Cpd 54] | 100% | – | – |

| Structure (SMILES) | % I (1 μM) | % I (5 μM) [%] | % I (0.5 μM) |
| --- | --- | --- | --- |
| CCOP(=O)(OCC)C(Cc1cccc(OC(F)(F)F)c1)c1sc2ccccc2c1C (centres unmarked) [Cpd 57] | 100% | – | – |
| CCOP(=O)(OCC)C(Cc1ccc(C(F)(F)F)c(F)c1)c1cc2ccccc2s1 (centres unmarked) [Cpd 58] | 100% | – | – |
| CCOP(=O)(OCC)C(Cc1ccccc1C(F)(F)F)c1sc2ccccc2c1C (centres unmarked) [Cpd 59] | 99% | – | – |
| CCOP(=O)(OCC)C(Cc1c(Cl)ccc(C)c1F)c1sc2ccccc2c1C (centres unmarked) [Cpd 60] | 100% | – | – |
| CCOP(=O)(OCC)C(Cc1ccccc1OC(F)(F)F)c1sc2ccccc2c1C (centres unmarked) [Cpd 61] | 100% | – | – |
| CCOP(=O)(OCC)C(Cc1ccccc1Br)c1sc2ccccc2c1C (centres unmarked) [Cpd 66] | 100% | – | – |
| CCOP(=O)(OCC)C(Cc1cc(C(F)(F)F)ccc1F)c1sc2ccccc2c1C (centres unmarked) [Cpd 67] | 100% | – | – |
| CCOP(=O)(OCC)C(Cc1ccc(C(F)(F)F)cc1)c1cc2ccccc2s1 (centres unmarked) [Cpd 68] | 96% | – | – |
| CC(C)OP(=O)(OC(C)C)C(Cc1cccc(C(F)(F)F)c1)c1cc2ccccc2s1 (centres unmarked) [Cpd 69] | 99% | – | – |
| CCOP(=O)(OCC)C(Cc1ccc(Br)cc1)c1cc2ccccc2s1 (centres unmarked) [Cpd 70] | 82% | 99 | – |
| CCOP(=O)(OCC)C(Cc1cc2c(cc1Cl)OCO2)c1sc2ccccc2c1C (centres unmarked) [Cpd 71] | 98% | – | – |
| CCOP(=O)(OCC)C(Cc1cc(C(F)(F)F)cc(Cl)c1F)c1sc2ccccc2c1C (centres unmarked) [Cpd 73] | 100% | – | – |
| CCOP(=O)(OCC)C(Cc1ccccc1)c1cc2ccccc2s1 (centres unmarked) [Cpd 74] | 92% | – | – |
| CCOP(=O)(OCC)C(Cc1cc(F)c(Cl)cc1Cl)c1sc2ccccc2c1C (centres unmarked) [Cpd 76] | 100% | – | – |
| CCOP(=O)(OCC)C(Cc1ccccc1F)c1cc2ccccc2s1 (centres unmarked) [Cpd 80] | 93% | 100 | – |
| CCOP(=O)(OCC)C(Cc1cccc(C(F)(F)F)c1Cl)c1sc2ccccc2c1C (centres unmarked) [Cpd 81] | 100% and 87% | – | – |
| CCOP(=O)(OCC)C(Cc1ccc2ccccc2c1)c1cc2ccccc2s1 (centres unmarked) [Cpd 83] | 84% | – | – |
| CCOP(=O)(OCC)C(Cc1ccccc1Cl)c1cc2ccccc2s1 (centres unmarked) [Cpd 85] | 90% | 100 | – |
